The values below come from US12559784B2 (priority 2023, dated 2026).

Structures are written as SMILES. “And” between values parts separate entries of the source, which are not always exact repeats. Equal entries are not always repeated. Where two headings read alike, the source gives them in different places. Some results are limits rather than exact numbers.

For data set [1], the system named is alkaline phosphatase. Type of data set: biochemical. On the procedure: New stocks were made the of the 1:100 alkaline phosphatase reaction reagents.
The conditions included: 1:100 dilution of alkaline phosphatase reaction reagent with two solvents (buffered saline and ethanol), dosing in 0.5 mL microcentrifuge tubes with 20 μL of chemical added to 180 μL of reaction reagent, and incubating with p-Nitrophenyl phosphate disodium salt (PNPP) substrate for 1-hour.

The subject of another data set is skin. To be noted: cited from earlier work.
Another data set deals with porcine skin. To be noted: R 1 and 2. As for the experimental part:
Our initial studies involved using fresh and frozen porcine skin “buttons”. These buttons were punched out of porcine skin (Spear Products, Cooopersburg, PA) using a […] biopsy punch tool. Three different kinds of skin buttons were prepared from fresh porcine skin, frozen porcine skin, and frozen porcine skin with the fatty layer removed. […] The next day, the tubes were taken out and vortexed and 500 μL of the solution was aliquoted into cuvettes to read at three different optical density wavelengths (OD190, OD290, OD300) to evaluate the best response.
Skin Preparation • 1. Thaw 2 pieces of frozen porcine skin • 2. Punch out buttons: 24 buttons in each tube filled with 40 mL PB S-Azide 96-well plate Preparation • 1. Plate layout for dosing:
Procedure • 1. Dose each tissue with 140 μL of test chemical • 2. […] Take out of incubator and vortex pulse 3× • 2. Aliquot 500 μL to cuvette and read results at OD190, OD290, and OD300
There were three readings done at an optical density of 190, 290, and 300 nm to evaluate the best response. […] To address the variable exposure conditions, our next studies involved placing a larger porcine skin section into a holder that exposes only the epidermis side with no potential for test chemical exposure from the backside or through the sides.

A further data set concerns phosphatase. Type of data set: biochemical, porcine. To be noted: for percent of phosphatase measured (optical density compared to the naïve condition), average: average of two readings; for percent of phosphatase measured (optical density compared to the naïve condition): single readings. As for the experimental part:
Our next studies involved applying the test substance (500 μL) directly to the epidermis side of previously frozen porcine skin (Spear Products, Coopersburg, PA) that is placed in a holder that only exposes the epidermis side for 30 minutes, adding phosphate buffered saline (PBS) with added sodium azide (metabolic inhibitor that ensure no viable tissue), then aliquoting into cuvettes to read at an optical density of 300 nm. […] So, at the end of the initial studies described above, almost out of frustration, we tried to probe for released phosphatase activity using p-Nitrophenyl phosphate disodium salt (PNPP; Sigma Aldrich, St. Louis, MO) substrate solution to detect any presence of phosphatase.
Preparation • 1. Thaw 2 pieces of frozen porcine skin • a. Punch out as many skin discs and mount in holders • 2. Label cuvettes (3 for each chemical) Procedure • 1. Add 500 μL of test chemical to holder; incubate at room temperate for 30 minutes • 2. After 30 minutes, add 2 mL of PBS-Azide to both the holder containing the test chemical; forcefully pipette and re-pipette 10 times • 3. From the holder, aliquot 400 μL into 3 cuvettes; forcefully pipette and re-pipette 3 times before dispensing into cuvettes Reading Results • 1. Measure at OD300 for all cuvettes
Skin corrosion by GHS Category 1 dermal corrosive chemicals results in the disintegration of the epidermis into the dermis.

The subject of data set [2] is alkaline phosphatase. In words: Alkaline phosphatase experiment, third week: with and without discs. The format is biochemical. The text has this:
Our next study focused on an in vitro method of detecting the potential of dermal corrosives to inhibit nonspecific phosphatases that may be released from the skin. We decided to test pure […] instead of relying on endogenous skin phosphatase. Alkaline phosphatase (Sigma Aldrich, St. Louis, MO) was purchased and suspended to make the reaction reagent (10,000 units). […] We note that the ratio used was 0.1 g/ml or 10% chemical—which is far in excess of any pharmaceutical applications. We further note that pharmaceutical enzyme inhibition tests, studies an use involve highly specific active site binding and these assays are conducted at ratios of micrograms-femtograms per ml. These studies are done at these ranges because these are the realistic concentrations for drug applications and therapeutics. […] So when a 50 Kg human consumes the tables, the tissues will be exposed at a 5 mg/50 kg=0.1 mg/kg=0.0000001 g/ml.
Next two quantitative methods were evaluated: 1) using the discs parts from our OptiSafe™ test method and 2) directly into the 24-well plate.
Preparation • 1. Alkaline phosphatase reaction reagent • a. Take 1 vial of AP, add 1 mL of PBS, mix by pipette/re-pipette 10 times • b. To a 50 mL conical tube, add 1 mL of the AP solution prepared above and 40 mL of PBS • 2. Prepare two 24-well plates (1 with discs, 1 without discs) • 3. […] Aliquot 200 μL PNPP and PBS Procedure • 1. Plate 1 (No Discs) • a. Add 1.25 mL from the prepared PBS-AP conical tube to each well (11 wells) • b. Add 100 μL of the test material to the well, mix with the same pipette tip, dispose and repeat for the rest of the test materials • c. Wrap the plate in saran wrap and place into the container • 2. Plate 2 (Discs) • a. Configure the 11 discs in the plate so the plate cover is stable • b. Add 1.25 mL from the prepared PBS-AP conical tube to each well (11 wells) • c. Add 100 μL of the test material to the center of the disc and repeat for the rest of the test materials • d. Put the plate cover on and place into the container • 3. […] Incubate for 1 hour Reading Results • 1. Measure at OD405

Where [3] appears, read: skin, chemical lists of the experiments.
Setting [4] is: frozen porcine skin with fat layer removed.
The mark [5] stands for this setting: fresh porcine skin, 140 μL test chemical, >3A = outside readable range.

In the case of `CC/C=C\CC1=C(C)CCC1=O`, in the data set with alkaline phosphatase [1], the “A2 - Results AVG” value is on record as 2.527, the “A2 - Results R1” value was 2.405 and the “A2 - Results R3” value is on record as 2.704. Besides, the “in vivo GHS” value with skin (rabbit, in vivo) is “Cat. 2”.

For the compound `CC(C)=CCC/C(C)=C/CO`, in the data set with alkaline phosphatase [1], the “A2 - Results AVG” value came to 1.894, the “A2 - Results R1” value is 1.876 and the “A2 - Results R3” value came out at 1.956. In addition, the “in vivo GHS” value with skin (setting [3]) is “Cat. 2”.

Turning to `CCCCCBr` [1-Bromopentane], in the data set with alkaline phosphatase [1], the “A2 - Results AVG” value is 2.686, the “A2 - Results R1” value amounted to 2.590 and the “A2 - Results R3” value stood at 2.598. The “in vivo GHS” value with skin (setting [3]) is “Cat. 2”.

For `CCCCCCCCCCO` [1-Decanol], in the data set on alkaline phosphatase [1], the “A2 - Results AVG” value is 2.373, the “A2 - Results R1” value is given as 2.205 and the “A2 - Results R3” value turned out to be 2.472. For the same compound, the “in vivo GHS” value in the data set with skin (rabbit, in vivo) is listed as “Cat. 2”.

As for `CC(C)(O)CCc1ccccc1` [2-Methyl-4-phenyl-2-butanol], in the data set with porcine skin (fresh porcine skin), the OD290 is 0.339 and 0.426; the OD300 was 0.272 and 0.371. In the data set with porcine skin (setting [4]), the OD190 is 0.215 and 0.322; the OD290 is 0.079 and 0.094; the OD300 was 0.026 and 0.052. For the same compound, in the data set on porcine skin (frozen porcine skin), the OD190 was 0.338 and 0.362; the OD290 is 0.496 and 0.637; the OD300 was 0.342 and 0.497. In the data set on phosphatase, the “percent of phosphatase measured (optical density compared to the naïve condition), average” value (“percent of phosphatase measured … average” below) was 99.3%; the “percent of phosphatase measured (optical density compared to the naïve condition)” value was 98.6% and 100.0%. The Corrosive result with skin (Yes/No) is on record as “No”.

For the compound `CC(C)(C)c1ccccc1O` [2-tert-Butylphenol], in the data set with alkaline phosphatase [1], the “A2 - Results AVG” value was 2.615, the “A2 - Results R1” value is 2.829 and the “A2 - Results R3” value is listed as 2.448.

Take `BrCCc1ccccc1` [(2-Bromoethyl)benzene]: in the data set on porcine skin (fresh porcine skin), the OD290 was 0.125 and 0.133; the OD300 was 0.080 and 0.094. Moreover, in the data set with porcine skin (setting [4]), the OD190 is 0.131 and 0.144; the OD290 came out at 0.071; the OD300 was 0.030 and 0.034. In the data set on porcine skin (frozen porcine skin), the OD290 is 0.279 and 0.254; the OD300 is 0.137 and 0.128. Besides, in the data set with phosphatase, the “percent of phosphatase measured … average” value is listed as 100.0% and the “percent of phosphatase measured (optical density compared to the naïve condition)” value was 100.0%.

As to `CC(=O)OCc1ccccc1` [Benzyl Acetate], in the data set on alkaline phosphatase [1], the “A2 - Results AVG” value is on record as 3.385, the “A2 - Results R1” value came to 3.42 and the “A2 - Results R3” value was 3.484.

On to `O=C(OCc1ccccc1)c1ccccc1O` [Benzyl Salicylate], for which, in the data set on alkaline phosphatase [1], the “A2 - Results AVG” value is listed as 3.317, the “A2 - Results R1” value is reported as 3.345 and the “A2 - Results R3” value worked out at 3.333.

In the data set on porcine skin (fresh porcine skin), `CC(C=O)Cc1ccc(C(C)C)cc1` (centres unmarked) [Cyclamen aldehyde] showed an OD290 of 0.290. Also, in the data set on alkaline phosphatase [1], the “A2 - Results AVG” value is reported as 2.777, the “A2 - Results R1” value came to 2.736 and the “A2 - Results R3” value was determined as 2.845. Further, in the data set on phosphatase, the “percent of phosphatase measured … average” value turned out to be 100.0% and the “percent of phosphatase measured (optical density compared to the naïve condition)” value came to 100.0%. Besides, the Corrosive result in the data set on skin (Yes/No) is on record as “No”. In addition, in the data set on skin (setting [3]), the “in vivo GHS” value is on record as “Cat. 2”.

`NCCO` [Ethanolamine] returned an OD190 in the data set with porcine skin (setting [5]) greater than 3A. Also, in the data set on porcine skin (fresh porcine skin), the OD290 is 0.848 and 1.169; the OD300 was 0.711 and 1.044. For the same compound, in the data set with porcine skin (setting [4]), the OD190 is 0.761 and 0.800; the OD290 is 0.168 and 0.093. Also, in the data set with porcine skin (frozen porcine skin), the OD290 was 0.708 and 0.767; the OD300 is 0.524 and 0.598. Also, in the data set on alkaline phosphatase [2], the “raw optical density reading (PNPP), with discs (FIG. 3A)” value was 0.170 and 0.166 and 0.172; the “raw optical density reading (PNPP), without discs (FIG. 3B)” value is 0.174 and 0.185 and 0.175. Besides, in the data set on phosphatase, the “percent of phosphatase measured … average” value is listed as 19.9%; the “percent of phosphatase measured (optical density compared to the naïve condition)” value is 20.1% and 19.6%. Besides, in the data set with skin (rabbit, in vivo), the Corrosive result is reported as “Yes”.

Take `CC(CC=O)CCCC(C)(C)O` (centres unmarked) [Hydroxycitronellal]: in the data set with alkaline phosphatase [1], the “A2 - Results AVG” value was 2.585, the “A2 - Results R1” value is recorded as 2.513 and the “A2 - Results R3” value stood at 3.089.

As for `CC(C)O` [Isopropanol], in the data set on alkaline phosphatase [1], the “A2 - Results AVG” value amounted to 2.528, the “A2 - Results R1” value is reported as 2.294 and the “A2 - Results R3” value was determined as 2.389.

In the case of `CCCCCCCCCCCCCC(=O)OC(C)C` [Isopropyl Myristate], in the data set on alkaline phosphatase [1], the “A2 - Results AVG” value is given as 3.339, the “A2 - Results R1” value turned out to be 3.413 and the “A2 - Results R3” value was 3.360.

For `OCCc1ccccc1` [Phenylethyl alcohol], in the data set on alkaline phosphatase [1], the “A2 - Results AVG” value came out at 3.303, the “A2 - Results R1” value amounted to 3.342 and the “A2 - Results R3” value is on record as 3.287.

Take `OCCOCCOCCO` [Triethylene glycol]: in the data set on phosphatase, the “percent of phosphatase measured … average” value stood at 28.9%; the “percent of phosphatase measured (optical density compared to the naïve condition)” value was 29.5% and 28.2%. Also, the Corrosive result in the data set with skin (rabbit, in vivo) was “No”.

As for `CC1=CCC(C(C)(C)O)CC1` (stereo not drawn) [alpha-Terpineol], in the data set with alkaline phosphatase [1], the “A2 - Results AVG” value is reported as 2.589, the “A2 - Results R1” value is 2.223 and the “A2 - Results R3” value was found to be 2.793. The “in vivo GHS” value in the data set with skin (rabbit, in vivo) was “Cat. 2”.

Consider `CCCSSCCC` [di-n-Propyl disulfide], for which the OD190 in the data set with porcine skin (setting [5]) was 0.419 and 0.400. In the data set with porcine skin (fresh porcine skin), the OD290 is 0.139 and 0.137; the OD300 was 0.105 and 0.096. In the data set with porcine skin (setting [4]), the OD190 was 0.443 and 0.405; the OD290 was 0.082 and 0.063; the OD300 was 0.031 and 0.018. Further, in the data set on porcine skin (frozen porcine skin), the OD190 was 0.314 and 0.396; the OD290 is 0.294 and 0.240; the OD300 is 0.161 and 0.119. In the data set on alkaline phosphatase [1], the “A2 - Results AVG” value came out at 2.472, the “A2 - Results R1” value is on record as 2.649 and the “A2 - Results R3” value is reported as 2.368. Moreover, in the data set on phosphatase, the “percent of phosphatase measured … average” value is listed as 69.9%; the “percent of phosphatase measured (optical density compared to the naïve condition)” value was 68.1% and 71.6%. Moreover, the Corrosive entry with skin (Yes/No) is reported as “No”. Also, the “in vivo GHS” value with skin (setting [3]) was “Cat. 2”.

Take `C=C(C)[C@@H]1CC=C(CO)CC1` [p-Metha-1,8-dien-7-ol]: in the data set with alkaline phosphatase [1], the “A2 - Results AVG” value turned out to be 2.793, the “A2 - Results R1” value came to 2.757 and the “A2 - Results R3” value came out at 2.868. Also, the “in vivo GHS” value with skin (setting [3]) was “Cat. 2”.
